Measurements published in ChEMBL document CHEMBL4483862, “Open-source discovery of chemical leads for next-generation chemoprotective antimalarials” (2018).

System: Plasmodium berghei
Experiment: Luciferase/luciferin-expressing antifolate-resistant parasites were used to infect a culture of HepG2 cells that were pre-incubated with compounds. Infected hepatocytes emit light due to the luciferase reaction. Assay results are presented as the percent inhibition of light emission compared to control. […]
Format: functional
Conditions: sporozoite; for IC90: read-out: LUCIFERASE INFECTION ASSAY - IC90

Structure (SMILES): Cc1ccsc1/C=N/Nc1ncc(Cl)cc1Cl
- IC50 (FFLUC_HILL_SLOPE 11.7, FFLUC_R_SQUARED 0.18, PBLUC_HILL_SLOPE 22.2, PBLUC_R_SQUARED 0.267, read-out: LUCIFERASE INFECTION ASSAY - IC50): 9.19 µM
- IC90: > 10 µM

Structure (SMILES): COc1ccc(CCN2C(=O)CS/C2=N\c2ccc(C)cc2C)cc1OC
- IC50 (FFLUC_HILL_SLOPE 11.8, FFLUC_R_SQUARED 0.0733, HEPG2TOX_HILL_SLOPE 1.46, HEPG2TOX_R_SQUARED 0.879, PBLUC_HILL_SLOPE 2.1, PBLUC_R_SQUARED 0.331, read-out: LUCIFERASE INFECTION ASSAY - IC50): 6.08 µM
- IC90: > 8.58 µM

Structure (SMILES): Cc1ccc(C(=O)C(=O)Nc2cc(S(=O)(=O)N3CCCCC3)ccc2OC(C)C)cc1
- IC50 (FFLUC_HILL_SLOPE 11.8, FFLUC_R_SQUARED 0.613, read-out: LUCIFERASE INFECTION ASSAY - IC50): > 10 µM
- IC90: > 10 µM

Structure (SMILES): CCC(C)(C)c1ccc(OCC(=O)Nc2ccc(Cl)c(N)c2)c(C(C)(C)CC)c1
- IC50 (FFLUC_HILL_SLOPE 11.8, FFLUC_R_SQUARED 0.0263, PBLUC_HILL_SLOPE 15.2, PBLUC_R_SQUARED 0.794, read-out: LUCIFERASE INFECTION ASSAY - IC50): 2.66 µM
- IC90: 3.07 µM

Structure (SMILES): Cc1nsc(N)c1C(=O)OCc1cc(=O)n2c3c(sc2n1)CCCC3
- IC50 (FFLUC_HILL_SLOPE 11.9, FFLUC_R_SQUARED 0.297, read-out: LUCIFERASE INFECTION ASSAY - IC50): > 10 µM
- IC90: > 10 µM

Structure (SMILES): COc1cc2c(cc1OC)C(c1cccs1)N(CC(=O)Nc1cc([N+](=O)[O-])ccc1C)CC2 (centres undefined)
- IC50 (FFLUC_HILL_SLOPE 11.9, FFLUC_R_SQUARED 0.176, HEPG2TOX_HILL_SLOPE 0.633, HEPG2TOX_R_SQUARED 0.848, PBLUC_HILL_SLOPE 2.15, PBLUC_R_SQUARED 0.479, read-out: LUCIFERASE INFECTION ASSAY - IC50): 0.944 µM
- IC90: 2.62 µM

Structure (SMILES): Cc1ccc2nc(-c3ccc(NC(=O)COC(=O)c4oc5ccccc5c4COC(C)C)cc3)sc2c1
- IC50 (FFLUC_HILL_SLOPE 11.7, FFLUC_R_SQUARED 0.82, PBLUC_HILL_SLOPE 2.16, PBLUC_R_SQUARED 0.259, read-out: LUCIFERASE INFECTION ASSAY - IC50): 9.03 µM
- IC90: > 10 µM

Structure (SMILES): CC(Sc1nccn1-c1cccc(F)c1)C(=O)Nc1ccc(N2CCOCC2)cc1 (centres undefined)
- IC50 (FFLUC_HILL_SLOPE 11.8, FFLUC_R_SQUARED 0.0999, read-out: LUCIFERASE INFECTION ASSAY - IC50): > 10 µM
- IC90: > 10 µM

Structure (SMILES): Cn1c(=O)/c(=C\c2cn(-c3ccccc3)nc2-c2ccccc2)s/c1=C\C(=O)C(C)(C)C
- IC50 (FFLUC_HILL_SLOPE 11.8, FFLUC_R_SQUARED 0.797, read-out: LUCIFERASE INFECTION ASSAY - IC50): > 10 µM
- IC90: > 10 µM

Structure (SMILES): N#CC(C(=O)CSc1nnc(-c2ccc(F)cc2)c2ccccc12)=C1Nc2ccccc2N1
- IC50 (FFLUC_HILL_SLOPE 12, FFLUC_R_SQUARED 0.136, read-out: LUCIFERASE INFECTION ASSAY - IC50): > 10 µM
- IC90: > 10 µM

Structure (SMILES): COc1cc(OC)c(C2CCN(C(=O)c3nn(-c4ccc(F)cc4)c4c3CCCC4)CC2)c(OC)c1
- IC50 (FFLUC_HILL_SLOPE 11.8, FFLUC_R_SQUARED 0.584, PBLUC_HILL_SLOPE 10.3, PBLUC_R_SQUARED 0.0293, read-out: LUCIFERASE INFECTION ASSAY - IC50): > 10 µM
- IC90: > 10 µM

Structure (SMILES): Cn1nc(C(F)(F)F)cc1-c1ccc(/C=C(\C#N)S(=O)(=O)c2ccc(Cl)cc2)s1
- IC50 (FFLUC_HILL_SLOPE 11.9, FFLUC_R_SQUARED 0.391, read-out: LUCIFERASE INFECTION ASSAY - IC50): > 7.21 µM
- IC90: > 7.21 µM

Structure (SMILES): Cc1c(S(=O)(=O)c2ccc(Cl)cc2)csc1C(=O)Nc1cc(C(F)(F)F)cc(C(F)(F)F)c1
- IC50 (FFLUC_HILL_SLOPE 11.9, FFLUC_R_SQUARED 0.653, HEPG2TOX_HILL_SLOPE 12.6, HEPG2TOX_R_SQUARED 0.751, PBLUC_HILL_SLOPE 2.69, PBLUC_R_SQUARED 0.583, read-out: LUCIFERASE INFECTION ASSAY - IC50): 3.24 µM
- IC90: > 6.25 µM

Structure (SMILES): O=C(Nc1ccc(Cl)cc1)Nc1cc(Cl)c(-n2cccc2)cc1Cl
- IC50 (FFLUC_HILL_SLOPE 11.8, FFLUC_R_SQUARED 0.707, PBLUC_HILL_SLOPE 1.68, PBLUC_R_SQUARED 0.178, read-out: LUCIFERASE INFECTION ASSAY - IC50): 6.82 µM
- IC90: > 8.67 µM

Structure (SMILES): NNc1nn2c(=O)c3c(-c4ccccc4)csc3nc2c2ccccc12
- IC50 (FFLUC_HILL_SLOPE 12, FFLUC_R_SQUARED 0.305, PBLUC_HILL_SLOPE 10.1, PBLUC_R_SQUARED 0.389, read-out: LUCIFERASE INFECTION ASSAY - IC50): 8.61 µM
- IC90: > 10 µM

Structure (SMILES): CC(C)c1ccc(NC(=O)C2=CN3CCN(Cc4ccccc4)C(=O)N=C3O2)cc1
- IC50 (FFLUC_HILL_SLOPE 11.9, FFLUC_R_SQUARED 0.0164, read-out: LUCIFERASE INFECTION ASSAY - IC50): > 10 µM
- IC90: > 10 µM

Structure (SMILES): Cc1cccc(NC(=S)Nc2cn(-c3ccccc3)nc2-c2ccc(Br)cc2)c1C
- IC50 (FFLUC_HILL_SLOPE 12, FFLUC_R_SQUARED 0.538, PBLUC_HILL_SLOPE 15.7, PBLUC_R_SQUARED 0.516, read-out: LUCIFERASE INFECTION ASSAY - IC50): 9.52 µM
- IC90: > 10 µM

Structure (SMILES): COc1ccc(CCn2nc(C(=O)NC3CC3)c3c2CCN(C(=O)c2cc4cc(C)ccc4[nH]2)C3)cc1
- IC50 (FFLUC_HILL_SLOPE 11.9, FFLUC_R_SQUARED 0.277, PBLUC_HILL_SLOPE 2.4, PBLUC_R_SQUARED 0.763, read-out: LUCIFERASE INFECTION ASSAY - IC50): 2.8 µM
- IC90: > 6.63 µM

Structure (SMILES): Cc1nn(-c2ccccc2)c2nc(Cl)c(C3Nc4ccccc4-c4nc5ccccc5n43)cc12 (centres undefined)
- IC50 (FFLUC_HILL_SLOPE 11.9, FFLUC_R_SQUARED 0.792, read-out: LUCIFERASE INFECTION ASSAY - IC50): > 10 µM
- IC90: > 10 µM

Structure (SMILES): N#Cc1nc(=O)n(-c2ccc(OC(F)(F)F)cc2)c(N)c1/N=C/c1ccc(C(F)(F)F)cc1
- IC50 (FFLUC_HILL_SLOPE 11.8, FFLUC_R_SQUARED 0.146, HEPG2TOX_HILL_SLOPE 2.94, HEPG2TOX_R_SQUARED 0.795, PBLUC_HILL_SLOPE 2.18, PBLUC_R_SQUARED 0.738, read-out: LUCIFERASE INFECTION ASSAY - IC50): 1.76 µM
- IC90: 4.82 µM

Structure (SMILES): CCOc1ccc(-c2n[nH]c3c2C(c2ccccc2)N(c2ccccc2)C3=O)cc1 (centres undefined)
- IC50 (FFLUC_HILL_SLOPE 11.9, FFLUC_R_SQUARED 0.867, HEPG2TOX_HILL_SLOPE 2.22, HEPG2TOX_R_SQUARED 0.878, read-out: LUCIFERASE INFECTION ASSAY - IC50): > 8.34 µM
- IC90: > 8.34 µM

Structure (SMILES): CCOC(=O)c1c(-c2cccs2)csc1NC(=O)c1c(S)n(-c2ccccc2C)c2ccc(C)c[n+]12
- IC50 (FFLUC_HILL_SLOPE 11.9, FFLUC_R_SQUARED 0.481, read-out: LUCIFERASE INFECTION ASSAY - IC50): > 10 µM
- IC90: > 10 µM

Structure (SMILES): COc1cc2ccccc2cc1C(=O)OC(C(=O)Nc1ccc(C)c(Cl)c1)c1ccccc1 (centres undefined)
- IC50 (FFLUC_HILL_SLOPE 12, FFLUC_R_SQUARED 0.255, PBLUC_HILL_SLOPE 12.6, PBLUC_R_SQUARED 0.137, read-out: LUCIFERASE INFECTION ASSAY - IC50): > 10 µM
- IC90: > 10 µM

Structure (SMILES): CC(C1CC2CCC1C2)n1c(SCc2nnc(-c3ccccc3)o2)nnc1-c1ccco1 (centres undefined)
- IC50 (FFLUC_HILL_SLOPE 12, FFLUC_R_SQUARED 0.233, read-out: LUCIFERASE INFECTION ASSAY - IC50): > 10 µM
- IC90: > 10 µM

Structure (SMILES): COc1ccc(OCCN2CCN(CC(=O)Nc3nc(-c4c[nH]c5ccccc45)cs3)CC2)cc1
- IC50 (FFLUC_HILL_SLOPE 11.8, FFLUC_R_SQUARED 0.598, PBLUC_HILL_SLOPE 24.3, PBLUC_R_SQUARED 0.264, read-out: LUCIFERASE INFECTION ASSAY - IC50): 9.11 µM
- IC90: 9.98 µM

Structure (SMILES): O=C(Nc1ncccc1OCc1ccc(Cl)c(Cl)c1)c1cc(Cl)cc(Cl)c1
- IC50 (FFLUC_HILL_SLOPE 11.8, FFLUC_R_SQUARED 0.202, PBLUC_HILL_SLOPE 16.7, PBLUC_R_SQUARED 0.189, read-out: LUCIFERASE INFECTION ASSAY - IC50): > 7.46 µM
- IC90: > 7.46 µM

Structure (SMILES): COc1ccc(Cl)cc1C(=O)NNC(=O)c1oc2ccccc2c1CSC1CCCCC1
- IC50 (FFLUC_HILL_SLOPE 11.7, FFLUC_R_SQUARED 0.493, read-out: LUCIFERASE INFECTION ASSAY - IC50): > 10 µM
- IC90: > 10 µM

Structure (SMILES): Cc1ccc(CCC2CCN(C(=O)c3ccc(NS(=O)(=O)c4cccs4)cc3O)CC2)cc1
- IC50 (FFLUC_HILL_SLOPE 12, FFLUC_R_SQUARED 0.0293, HEPG2TOX_HILL_SLOPE 12.4, HEPG2TOX_R_SQUARED 0.101, read-out: LUCIFERASE INFECTION ASSAY - IC50): > 10 µM
- IC90: > 10 µM

Structure (SMILES): COc1ccc(OC)c(/C=C/C(=O)Nc2cc(C(F)(F)F)ccc2Oc2ccc(Br)cc2)c1
- IC50 (FFLUC_HILL_SLOPE 11.8, FFLUC_R_SQUARED 0.49, HEPG2TOX_HILL_SLOPE 2.88, HEPG2TOX_R_SQUARED 0.666, read-out: LUCIFERASE INFECTION ASSAY - IC50): > 10 µM
- IC90: > 10 µM

Structure (SMILES): CC(C)c1ccccc1N(C(=O)Cc1ccc(-c2ccccc2)cc1)c1nc2ccccc2s1
- IC50 (FFLUC_HILL_SLOPE 11.9, FFLUC_R_SQUARED 0.677, HEPG2TOX_HILL_SLOPE 16.8, HEPG2TOX_R_SQUARED 0.508, PBLUC_HILL_SLOPE 1.31, PBLUC_R_SQUARED 0.0526, read-out: LUCIFERASE INFECTION ASSAY - IC50): 6.43 µM
- IC90: > 10 µM

Structure (SMILES): Cc1cc(C(=O)COC(=O)/C=C/c2cn(C)c(=O)n(C)c2=O)c(C)n1CCc1ccc(Cl)cc1
- IC50 (FFLUC_HILL_SLOPE 11.7, FFLUC_R_SQUARED 0.825, read-out: LUCIFERASE INFECTION ASSAY - IC50): > 10 µM
- IC90: > 10 µM

Structure (SMILES): O=C(OCc1ccccc1)C1=C2Sc3ccccc3N2C(=O)NC1(c1ccccc1)C(F)(F)F (centres undefined)
- IC50 (FFLUC_HILL_SLOPE 11.9, FFLUC_R_SQUARED 0.439, PBLUC_HILL_SLOPE 2.55, PBLUC_R_SQUARED 0.528, read-out: LUCIFERASE INFECTION ASSAY - IC50): 6.8 µM
- IC90: > 10 µM
